Measurements taken from ChEMBL document CHEMBL1649420, “Identifying chelators for metalloprotein inhibitors using a fragment-based approach” (J Med Chem, 2011).

Columns and labels:
[1] = target: Neutrophil collagenase (Homo sapiens) (UniProt P22894); settings: at 1 mM;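 also: recombinant human MMP8 enzyme, percent inhibition read after 30 min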
[2] = target: T1, Nitric oxide synthase, inducible (Mus musculus) (UniProt P29477); settings: at 1 mM;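 also: recombinant enzyme, activity read out colorimetrically after 40 min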
T1 sequence (whole entry): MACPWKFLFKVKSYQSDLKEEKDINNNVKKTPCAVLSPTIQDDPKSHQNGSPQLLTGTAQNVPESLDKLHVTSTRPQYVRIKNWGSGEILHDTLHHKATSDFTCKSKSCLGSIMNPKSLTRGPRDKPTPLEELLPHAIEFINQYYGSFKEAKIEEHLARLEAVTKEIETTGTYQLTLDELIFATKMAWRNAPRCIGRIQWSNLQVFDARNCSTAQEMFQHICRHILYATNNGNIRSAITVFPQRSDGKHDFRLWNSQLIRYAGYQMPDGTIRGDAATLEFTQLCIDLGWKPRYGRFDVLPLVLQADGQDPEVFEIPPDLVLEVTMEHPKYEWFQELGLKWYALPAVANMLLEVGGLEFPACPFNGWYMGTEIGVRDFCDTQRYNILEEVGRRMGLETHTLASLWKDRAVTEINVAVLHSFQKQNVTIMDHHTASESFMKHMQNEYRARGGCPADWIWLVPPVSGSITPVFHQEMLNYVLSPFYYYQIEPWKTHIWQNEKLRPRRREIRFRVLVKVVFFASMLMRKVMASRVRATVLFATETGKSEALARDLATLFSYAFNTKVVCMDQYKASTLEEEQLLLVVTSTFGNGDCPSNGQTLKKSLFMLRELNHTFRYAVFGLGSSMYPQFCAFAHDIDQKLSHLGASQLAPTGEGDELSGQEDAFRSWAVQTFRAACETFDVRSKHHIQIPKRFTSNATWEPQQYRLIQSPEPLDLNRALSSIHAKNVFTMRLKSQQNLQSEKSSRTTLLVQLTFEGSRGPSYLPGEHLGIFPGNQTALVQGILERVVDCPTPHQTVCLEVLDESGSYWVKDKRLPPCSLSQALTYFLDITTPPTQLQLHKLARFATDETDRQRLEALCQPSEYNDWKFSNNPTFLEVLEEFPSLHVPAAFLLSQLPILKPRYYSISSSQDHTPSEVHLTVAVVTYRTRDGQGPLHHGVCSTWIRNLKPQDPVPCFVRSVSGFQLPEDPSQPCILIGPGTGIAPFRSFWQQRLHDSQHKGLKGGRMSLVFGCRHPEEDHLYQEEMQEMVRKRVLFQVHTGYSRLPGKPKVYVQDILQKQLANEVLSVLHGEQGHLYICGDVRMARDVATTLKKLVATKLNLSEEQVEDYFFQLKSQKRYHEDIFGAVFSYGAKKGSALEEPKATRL

[3] = target: T2, Polyunsaturated fatty acid 5-lipoxygenase (Homo sapiens) (UniProt P09917); experiment: Inhibition of human recombinant 5-lipoxygenase at 1 mM after 10 mins by fluorescence assay
T2 sequence (whole entry): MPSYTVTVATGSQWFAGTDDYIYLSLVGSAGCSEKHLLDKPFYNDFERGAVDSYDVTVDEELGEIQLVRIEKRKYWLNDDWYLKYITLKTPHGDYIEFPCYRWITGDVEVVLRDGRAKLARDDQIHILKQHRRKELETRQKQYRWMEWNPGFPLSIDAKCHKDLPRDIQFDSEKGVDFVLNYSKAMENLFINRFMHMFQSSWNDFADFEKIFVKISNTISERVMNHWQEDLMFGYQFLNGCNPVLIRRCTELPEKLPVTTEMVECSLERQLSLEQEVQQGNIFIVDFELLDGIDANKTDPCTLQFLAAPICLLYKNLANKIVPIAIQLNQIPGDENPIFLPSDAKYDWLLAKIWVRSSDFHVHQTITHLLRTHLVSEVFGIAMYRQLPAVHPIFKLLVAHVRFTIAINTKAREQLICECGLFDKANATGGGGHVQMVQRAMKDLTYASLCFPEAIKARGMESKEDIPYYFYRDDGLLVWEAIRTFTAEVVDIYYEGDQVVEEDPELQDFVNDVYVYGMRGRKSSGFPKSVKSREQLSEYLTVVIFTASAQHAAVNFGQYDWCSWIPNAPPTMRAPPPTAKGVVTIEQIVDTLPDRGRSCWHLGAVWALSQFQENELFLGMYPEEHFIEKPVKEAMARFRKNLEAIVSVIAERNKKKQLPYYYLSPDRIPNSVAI

[4] = target: Stromelysin-1 (Homo sapiens) (UniProt P08254); settings: at 1 mM;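 also: recombinant enzyme, inhibition read after a 30 min incubation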
Chain of Stromelysin-1 (Homo sapiens) (P08254 100-477 limits assumed): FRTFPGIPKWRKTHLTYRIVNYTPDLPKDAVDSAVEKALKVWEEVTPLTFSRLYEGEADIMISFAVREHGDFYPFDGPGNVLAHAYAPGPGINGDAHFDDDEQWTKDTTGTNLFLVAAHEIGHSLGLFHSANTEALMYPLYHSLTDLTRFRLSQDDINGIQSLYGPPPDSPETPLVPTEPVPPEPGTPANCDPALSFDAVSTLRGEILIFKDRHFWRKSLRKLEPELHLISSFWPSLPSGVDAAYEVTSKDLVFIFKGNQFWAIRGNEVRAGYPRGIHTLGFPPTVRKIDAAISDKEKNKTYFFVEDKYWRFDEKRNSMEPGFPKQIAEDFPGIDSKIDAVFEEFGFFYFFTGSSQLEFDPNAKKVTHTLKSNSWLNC

[5] = target: T3, Lethal factor (Bacillus anthracis) (UniProt P15917); settings: at 1 mM
T3 sequence (whole entry): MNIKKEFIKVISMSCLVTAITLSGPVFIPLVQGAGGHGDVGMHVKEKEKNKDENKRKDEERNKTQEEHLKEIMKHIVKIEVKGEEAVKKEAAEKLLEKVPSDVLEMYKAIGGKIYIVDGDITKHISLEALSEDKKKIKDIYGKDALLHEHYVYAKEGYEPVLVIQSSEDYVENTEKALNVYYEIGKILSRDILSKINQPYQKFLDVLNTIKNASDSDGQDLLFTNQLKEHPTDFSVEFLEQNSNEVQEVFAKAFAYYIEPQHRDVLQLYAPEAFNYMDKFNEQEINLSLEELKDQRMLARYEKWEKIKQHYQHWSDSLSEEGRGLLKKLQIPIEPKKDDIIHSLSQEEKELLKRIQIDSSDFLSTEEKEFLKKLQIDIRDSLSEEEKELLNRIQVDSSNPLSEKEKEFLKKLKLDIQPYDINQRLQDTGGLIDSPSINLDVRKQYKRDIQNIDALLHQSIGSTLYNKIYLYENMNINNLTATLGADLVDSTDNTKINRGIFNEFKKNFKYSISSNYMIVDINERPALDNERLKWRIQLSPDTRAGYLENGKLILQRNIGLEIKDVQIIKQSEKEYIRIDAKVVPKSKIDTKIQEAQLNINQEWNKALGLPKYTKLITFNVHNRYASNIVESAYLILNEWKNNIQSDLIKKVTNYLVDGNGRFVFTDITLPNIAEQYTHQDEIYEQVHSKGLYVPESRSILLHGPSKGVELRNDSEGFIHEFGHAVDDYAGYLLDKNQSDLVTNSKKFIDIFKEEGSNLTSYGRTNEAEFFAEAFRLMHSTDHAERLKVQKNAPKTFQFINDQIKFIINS

[6] = target: Matrix metalloproteinase-9 (Homo sapiens) (UniProt P14780); settings: at 1 mM;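 also: recombinant human MMP9, activity read after 30 min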
Chain of Matrix metalloproteinase-9 (Homo sapiens) (P14780 whole entry): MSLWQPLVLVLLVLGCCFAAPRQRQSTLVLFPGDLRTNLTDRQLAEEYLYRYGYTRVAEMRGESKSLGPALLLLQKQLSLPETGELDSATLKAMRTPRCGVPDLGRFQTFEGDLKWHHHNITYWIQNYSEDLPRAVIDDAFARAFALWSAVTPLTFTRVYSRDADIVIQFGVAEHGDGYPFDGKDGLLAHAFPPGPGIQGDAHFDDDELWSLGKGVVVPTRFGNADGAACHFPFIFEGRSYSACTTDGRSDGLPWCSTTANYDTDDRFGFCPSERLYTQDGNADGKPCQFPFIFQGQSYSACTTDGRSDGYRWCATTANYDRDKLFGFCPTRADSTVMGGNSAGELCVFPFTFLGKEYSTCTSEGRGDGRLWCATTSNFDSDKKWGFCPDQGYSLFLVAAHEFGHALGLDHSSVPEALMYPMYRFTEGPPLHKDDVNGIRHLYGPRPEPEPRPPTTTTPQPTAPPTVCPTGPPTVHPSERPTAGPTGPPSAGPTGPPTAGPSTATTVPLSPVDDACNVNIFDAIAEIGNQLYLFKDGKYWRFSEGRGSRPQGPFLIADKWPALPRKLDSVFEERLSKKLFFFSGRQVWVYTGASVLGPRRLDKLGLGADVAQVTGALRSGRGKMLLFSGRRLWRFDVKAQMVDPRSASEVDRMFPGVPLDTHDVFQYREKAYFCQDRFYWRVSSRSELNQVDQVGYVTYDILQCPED

Chain of Neutrophil collagenase (Homo sapiens) (P22894 101-467 limits assumed): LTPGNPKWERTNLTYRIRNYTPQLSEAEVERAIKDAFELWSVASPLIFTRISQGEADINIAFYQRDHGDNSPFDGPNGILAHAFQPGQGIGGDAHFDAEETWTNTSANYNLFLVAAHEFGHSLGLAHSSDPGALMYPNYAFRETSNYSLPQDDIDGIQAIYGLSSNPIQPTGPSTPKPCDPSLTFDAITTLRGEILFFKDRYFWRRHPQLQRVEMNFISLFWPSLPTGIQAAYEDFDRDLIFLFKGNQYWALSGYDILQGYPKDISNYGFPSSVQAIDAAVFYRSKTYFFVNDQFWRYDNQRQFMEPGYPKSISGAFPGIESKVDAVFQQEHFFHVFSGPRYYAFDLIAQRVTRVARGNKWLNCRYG

Structure (SMILES) | inhibition [1] | inhibition [2] | inhibition [3] | inhibition [4] | inhibition [5] | inhibition [6]
Cc1cc(O)nc(C)n1 | 11% | 8% | 26% | 6% | 18% | 1%
Cc1cc(O)nc(O)n1 | 11% | 8% | 24% | 7% | 8% | 1%
O=C(O)c1ncccc1O | 56% | 46% | 17% | 56% | 43% | 19%
O=c1cccccc1O [TROPOLONE] | 100% | 9% | -3% | 95% | 55% | 91%
Cc1ccc(O)c(C(=O)O)c1 | 26% | 21% | 17% | 76% | 56% | 2%
